Results as given in patent US11655235B2, “Pyrrolidine and piperidine compounds” (YUHAN CORPORATION, priority 2019, dated 2023).

What was measured:
Assay type in all cases: biochemical
Recombinant human FAP = target: T1, Recombinant human FAP (Homo sapiens, UniProt Q12884); test: FAP FRET assay, FGF21-sequence FRET peptide substrate; details: FRET peptide with human FGF21 sequence, 6 μM, 37° C.
T1 construct: purchased R&D systems
T1 sequence (Q12884 1-760): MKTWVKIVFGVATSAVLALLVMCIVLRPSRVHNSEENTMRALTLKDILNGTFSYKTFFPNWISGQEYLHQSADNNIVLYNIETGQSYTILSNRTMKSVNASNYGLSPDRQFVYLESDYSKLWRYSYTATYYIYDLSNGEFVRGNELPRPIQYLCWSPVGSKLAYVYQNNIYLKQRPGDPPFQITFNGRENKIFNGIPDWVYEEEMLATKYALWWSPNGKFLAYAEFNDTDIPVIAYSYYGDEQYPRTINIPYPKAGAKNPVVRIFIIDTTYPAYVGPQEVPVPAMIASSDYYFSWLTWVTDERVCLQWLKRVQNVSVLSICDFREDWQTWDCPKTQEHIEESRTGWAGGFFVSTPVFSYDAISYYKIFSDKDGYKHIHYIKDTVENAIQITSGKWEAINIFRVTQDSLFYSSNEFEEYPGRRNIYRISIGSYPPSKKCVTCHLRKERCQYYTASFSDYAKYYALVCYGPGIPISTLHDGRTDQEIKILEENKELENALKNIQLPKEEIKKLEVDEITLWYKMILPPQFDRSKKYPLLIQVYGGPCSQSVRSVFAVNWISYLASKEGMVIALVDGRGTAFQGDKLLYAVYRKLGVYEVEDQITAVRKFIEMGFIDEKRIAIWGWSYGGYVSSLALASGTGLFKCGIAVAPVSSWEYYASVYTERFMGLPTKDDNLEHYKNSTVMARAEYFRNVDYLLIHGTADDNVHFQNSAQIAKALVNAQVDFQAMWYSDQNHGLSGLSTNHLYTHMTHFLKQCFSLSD
Procedure, shortened: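 FRET peptide bearing human FGF21 sequence (6 μM final) cleaved by 10 ng recombinant human FAP at 37° C in HEPES pH 7.2 buffer with NaCl, BSA and EDTA, DMSO up to 0.1%. Signal-rate decrease versus uninhibited control fitted to a four-variable logistic model for IC50.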

recombinant human DPP7 = target: T2, recombinant human DPP7 (Homo sapiens, UniProt Q9UHL4); test: DPP7 inhibition, fluorogenic substrate Lys-Pro-AMC; details: recombinant human DPP7
T2 construct: purchased R&D Systems
Procedure, shortened: (§1)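 Inhibitors are titrated in an 8-point series into the enzyme's assay buffer (DMSO no more than 0.5%). Substrate cleavage at 25 °C is followed by fluorescence, excitation 380 nm and emission 460 nm. IC50 values come from a four-variable logistic model.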

recombinant human DPP9 = target: T3, recombinant human DPP9 (Homo sapiens, UniProt Q86TI2); test: DPP9 inhibition, fluorogenic substrate H-Gly-Pro-AMC; details: recombinant human DPP9
T3 construct: purchased R&D Systems
Procedure, shortened: as §1

DPP4 = DPP4 (Homo sapiens, UniProt P27487); test: DPP4 inhibition, fluorogenic substrate H-Gly-Pro-AMC; parameters: purchased R&D Systems; details: recombinant human DPP4
recombinant human PREP = target: T4, recombinant human PREP (Homo sapiens, UniProt P48147); test: PREP inhibition, fluorogenic substrate Z-Gly-Pro-AMC; details: Inhibitory Activity (IC50, nM) PREP, recombinant human PREP
T4 construct: purchased R&D System
T4 sequence (P48147 1-710): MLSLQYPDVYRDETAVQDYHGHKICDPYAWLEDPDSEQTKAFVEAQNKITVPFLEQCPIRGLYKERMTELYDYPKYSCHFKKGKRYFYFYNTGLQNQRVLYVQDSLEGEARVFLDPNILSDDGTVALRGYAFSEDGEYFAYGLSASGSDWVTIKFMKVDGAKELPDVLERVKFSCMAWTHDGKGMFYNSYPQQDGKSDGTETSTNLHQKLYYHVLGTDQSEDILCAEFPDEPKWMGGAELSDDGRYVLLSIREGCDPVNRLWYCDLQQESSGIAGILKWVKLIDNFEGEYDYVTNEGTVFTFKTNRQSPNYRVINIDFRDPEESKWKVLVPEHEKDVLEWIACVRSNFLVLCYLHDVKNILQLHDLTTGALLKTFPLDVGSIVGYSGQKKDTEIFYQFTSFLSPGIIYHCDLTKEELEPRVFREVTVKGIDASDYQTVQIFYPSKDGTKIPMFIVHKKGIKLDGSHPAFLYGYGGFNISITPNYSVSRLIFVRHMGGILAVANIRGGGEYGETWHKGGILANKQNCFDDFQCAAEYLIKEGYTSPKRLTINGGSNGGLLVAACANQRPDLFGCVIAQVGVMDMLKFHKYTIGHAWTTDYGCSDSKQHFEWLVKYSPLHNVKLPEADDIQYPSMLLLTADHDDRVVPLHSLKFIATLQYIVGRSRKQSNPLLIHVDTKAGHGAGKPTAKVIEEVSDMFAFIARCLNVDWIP
Experimental: The compounds according to the present technology were evaluated in terms of the inhibitory effect on the activity of dipeptidyl peptidases including FAP by using a substrate producing fluorescent substances upon enzymatic decomposition. The test was conducted at 25° C. to get a final reaction volume of 100 μL in a 96 black well plate. […] Briefly, the test compounds were dissolved in dimethyl sulfoxide (DMSO) at a concentration of 20 mM and then subjected to serial dilution, thereby creating an 8 point curve. As for the control group, a 6 point curve created by serial dilution of Talabostat in the same buffer solution was used. Fluorescence intensity was measured using a microplate reader (Flexstation3, Molecular Devices) under the wavelength condition exciting at 380 nm and reading the emission at 460 nm. The inhibitory effect of the test compounds was measured as a decrease (%) in the signal rate as compared to the control group without any inhibitor. Data was fixed to a logistic model with four variables and IC50 value was calculated using GraphPad Prism program. As for recombinant human DPP4 (R&D Systems), 25 mM tris (pH 8.0) buffer as a buffer solution and H-Gly-Pro-AMC (Bachem) as a substrate were used. As for recombinant human DPP7 (R&D Systems), 25 mM MES (pH 6.0) buffer as a buffer solution and Lys-Pro-AMC (Bachem) as a substrate were used. As for recombinant human DPP8 (PBS Bioscience), as a buffer solution, a 10 mM tris (pH 7.4) buffer comprising 10 mM of magnesium chloride and 0.05% of Tween 20, and Z-Ala-Pro-AMC (BPS Bioscience) as a substrate were used. As for recombinant human DPP9 (R&D Systems), a 25 mM tris (pH 8.0) buffer as a buffer solution and H-Gly-Pro-AMC (Bachem) as a substrate were used. As for recombinant human PREP (R&D System), as a buffer solution, a 25 mM tris (pH 7.5) buffer comprising 250 mM sodium chloride and 2.5 mM DTT (Dithiolthreitol), and Z-Gly-Pro-AMC (Bachem) as a substrate were used. The evaluation was made by using 10 ng of DPP4, PDD7, and PREP, 20 ng of DPP8, and 50 ng of DPP9 based on the final reaction. In the evaluation of DPP4, the test compounds were subjected to serial dilution in a buffer under the condition containing up to 0.1% of DMSO. In the evaluation of DPP7, DPP8, DPP9, and PREP, the test compounds were subjected to serial dilution in each buffer under the condition containing up to 0.5% of DMSO.

T3 sequence (Q86TI2 whole entry): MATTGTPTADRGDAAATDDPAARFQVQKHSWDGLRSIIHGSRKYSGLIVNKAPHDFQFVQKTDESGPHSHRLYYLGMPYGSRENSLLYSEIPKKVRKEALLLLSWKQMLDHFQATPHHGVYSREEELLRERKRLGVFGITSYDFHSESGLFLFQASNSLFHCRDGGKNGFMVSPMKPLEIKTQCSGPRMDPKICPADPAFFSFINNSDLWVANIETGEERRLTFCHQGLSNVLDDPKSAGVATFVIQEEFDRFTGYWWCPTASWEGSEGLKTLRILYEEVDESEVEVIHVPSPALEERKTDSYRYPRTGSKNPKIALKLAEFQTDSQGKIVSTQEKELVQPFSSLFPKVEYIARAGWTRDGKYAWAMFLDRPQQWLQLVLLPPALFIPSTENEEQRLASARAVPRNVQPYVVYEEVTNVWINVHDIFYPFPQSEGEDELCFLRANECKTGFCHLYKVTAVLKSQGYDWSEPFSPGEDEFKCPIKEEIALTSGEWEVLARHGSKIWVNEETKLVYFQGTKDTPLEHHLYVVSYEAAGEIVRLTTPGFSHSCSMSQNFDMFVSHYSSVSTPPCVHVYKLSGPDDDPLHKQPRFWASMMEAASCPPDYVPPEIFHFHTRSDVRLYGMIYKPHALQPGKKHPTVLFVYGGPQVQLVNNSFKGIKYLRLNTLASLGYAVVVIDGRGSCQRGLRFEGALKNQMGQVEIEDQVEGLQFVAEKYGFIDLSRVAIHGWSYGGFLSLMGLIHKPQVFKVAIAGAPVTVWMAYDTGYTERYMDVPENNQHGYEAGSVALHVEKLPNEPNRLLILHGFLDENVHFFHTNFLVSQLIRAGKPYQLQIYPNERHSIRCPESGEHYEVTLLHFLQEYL
DPP4, sequence (P27487 whole entry): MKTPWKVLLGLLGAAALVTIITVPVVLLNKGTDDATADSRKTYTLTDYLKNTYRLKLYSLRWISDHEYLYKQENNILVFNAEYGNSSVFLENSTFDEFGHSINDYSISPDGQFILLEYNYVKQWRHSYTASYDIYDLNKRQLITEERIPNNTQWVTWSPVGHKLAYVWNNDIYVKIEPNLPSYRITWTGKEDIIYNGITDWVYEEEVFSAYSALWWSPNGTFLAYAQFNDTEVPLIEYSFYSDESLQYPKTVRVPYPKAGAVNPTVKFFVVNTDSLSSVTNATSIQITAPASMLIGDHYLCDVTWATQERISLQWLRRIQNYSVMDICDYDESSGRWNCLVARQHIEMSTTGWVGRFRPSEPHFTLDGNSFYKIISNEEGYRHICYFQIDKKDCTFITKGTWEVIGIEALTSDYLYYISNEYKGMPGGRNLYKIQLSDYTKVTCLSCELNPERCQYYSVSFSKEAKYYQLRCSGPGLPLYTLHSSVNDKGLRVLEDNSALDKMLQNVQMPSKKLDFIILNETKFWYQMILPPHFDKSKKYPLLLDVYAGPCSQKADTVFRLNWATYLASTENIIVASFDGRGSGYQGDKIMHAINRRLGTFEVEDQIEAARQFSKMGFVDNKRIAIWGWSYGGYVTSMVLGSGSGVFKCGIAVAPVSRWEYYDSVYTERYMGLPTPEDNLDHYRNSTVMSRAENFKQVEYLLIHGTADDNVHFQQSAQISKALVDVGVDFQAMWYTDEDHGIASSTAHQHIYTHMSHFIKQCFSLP

## N#C[C@@H]1CCCN1C(=O)CN1CC[C@H](Nc2ccc(C(=O)Nc3ccccn3)c3ncccc23)C1 [Example 293, N-(2-pyridyl)-5-[[(3S)-1-[2-oxo-2-[(2S)-2-cyanopyrrolidin-1-yl]ethyl]pyrrolidin-3-yl]amino]quinoline-8-carboxamide]
Recombinant human FAP
  IC50: 0.0008 µM
Recombinant human DPP7
  IC50: 0.122 µM
Recombinant human DPP9
  IC50: 1.25 µM
DPP4
  IC50: 2.67 µM
Recombinant human PREP
  IC50: 422 nM

## N#C[C@@H]1C[C@H](F)CN1C(=O)CN1CC[C@@H](Nc2ccc(C(F)(F)F)c3ncccc23)C1 [Example 183, (2S,4S)-4-fluoro-1-[2-[(3R)-3-[[8-(trifluoromethyl)-5-quinolyl]amino]pyrrolidin-1-yl]acetyl]pyrrolidine-2-carbonitrile]
Recombinant human FAP
  IC50: 0.0022 µM
Recombinant human DPP7
  IC50: 1.37 µM
Recombinant human DPP9
  IC50: 6.77 µM
DPP4
  IC50: 1.84 µM
Recombinant human PREP
  IC50: 3370 nM

## N#C[C@@H]1C[C@H](F)CN1C(=O)CN1CC[C@H](Nc2ccc(C(=O)Nc3cccnc3)c3ncccc23)C1 [Example 295, N-(3-pyridyl)-5-[[(3S)-1-[2-oxo-2-[(2S,4S)-2-cyano-4-fluoro-pyrrolidin-1-yl]ethyl]pyrrolidin-3-yl]amino]quinoline-8-carboxamide]
Recombinant human FAP
  IC50: 0.0007 µM
Recombinant human DPP7
  IC50: 0.0641 µM
Recombinant human DPP9
  IC50: 0.0878 µM
DPP4
  IC50: 0.865 µM
Recombinant human PREP
  IC50: 724 nM

## N#C[C@@H]1CCCN1C(=O)CN1CC[C@@H](Nc2cccc3ncc(Cl)cc23)C1 [Example 203, (2S)-1-[2-[(3R)-3-[(3-chloro-5-quinolyl)amino]pyrrolidin-1-yl]acetyl]pyrrolidine-2-carbonitrile]
Recombinant human FAP
  IC50: 0.0009 µM
Recombinant human DPP7
  IC50: 3.26 µM
Recombinant human DPP9
  IC50: 11.2 µM
DPP4
  IC50: 4.66 µM
Recombinant human PREP
  IC50: 12200 nM

## COc1cc(N[C@@H]2CCN(CC(=O)N3C[C@@H](F)C[C@H]3C#N)C2)c2cccnc2c1 [Example 177, (2S,4S)-4-fluoro-1-[2-[(3R)-3-[(7-methoxy-5-quinolyl)amino]pyrrolidin-1-yl]acetyl]pyrrolidine-2-carbonitrile]
Recombinant human FAP
  IC50: 0.0026 µM
Recombinant human DPP7
  IC50: 0.0469 µM
Recombinant human DPP9
  IC50: 1.17 µM
DPP4
  IC50: 3.42 µM
Recombinant human PREP
  IC50: 2920 nM

## Cc1cc(N[C@H]2CCN(CC(=O)N3C[C@@H](F)C[C@H]3C#N)C2)cc2cccnc12 [Example 277, (2S,4S)-4-fluoro-1-[2-[(3S)-3-[(8-methyl-6-quinolyl)amino]pyrrolidin-1-yl]acetyl]pyrrolidine-2-carbonitrile]
Recombinant human FAP
  IC50: 0.003 µM
Recombinant human DPP7
  IC50: 0.193 µM
Recombinant human DPP9
  IC50: 0.74 µM
DPP4
  IC50: 1.04 µM
Recombinant human PREP
  IC50: 1230 nM

## N#C[C@@H]1C[C@H](F)CN1C(=O)CN1CC[C@@H](Nc2cc(C(F)(F)F)cc3ncccc23)C1 [Example 182, (2S,4S)-4-fluoro-1-[2-[(3R)-3-[[7-(trifluoromethyl)-5-quinolyl]amino]pyrrolidin-1-yl]acetyl]pyrrolidine-2-carbonitrile]
Recombinant human FAP
  IC50: 0.0033 µM
Recombinant human DPP7
  IC50: 0.819 µM
Recombinant human DPP9
  IC50: 6.69 µM
DPP4
  IC50: 4.07 µM
Recombinant human PREP
  IC50: 5360 nM

## CN(C(=O)c1ccc(N[C@H]2CCN(CC(=O)N3C[C@@H](F)C[C@H]3C#N)C2)c2cccnc12)c1ccccc1 [Example 284, N-methyl-N-phenyl-5-[[(3S)-1-[2-oxo-2-[(2S,4S)-2-cyano-4-fluoro-pyrrolidin-1-yl]ethyl]pyrrolidin-3-yl]amino]quinoline-8-carboxamide]
Recombinant human FAP
  IC50: 0.0106 µM
Recombinant human DPP7
  IC50: 0.932 µM
Recombinant human DPP9
  IC50: 1.64 µM
DPP4
  IC50: 2.39 µM
Recombinant human PREP
  IC50: 574 nM

## N#C[C@@H]1C[C@H](F)CN1C(=O)CN1CC[C@H](Nc2cc(C(F)(F)F)c3ncccc3c2)C1 [Example 280, (2S,4S)-4-fluoro-1-[2-[(3S)-3-[[8-(trifluoromethyl)-6-quinolyl]amino]pyrrolidin-1-yl]acetyl]pyrrolidine-2-carbonitrile]
Recombinant human FAP
  IC50: 0.0021 µM
Recombinant human DPP7
  IC50: 0.184 µM
Recombinant human DPP9
  IC50: 0.674 µM
DPP4
  IC50: 0.839 µM
Recombinant human PREP
  IC50: 970 nM
